Experiments:
[1] = system: NQO1-negative MDA-MB-231 cells; assay: NIR-ASM in NQO1-negative control MDA-MB-231 cells; type: cell-based, human; conditions: microscopy and flow cytometry
Procedure: (§1) Chemical and genetic approaches confirm the specificity of NIR-ASM for NQO1 in live tumor cells. A fluorescence probe with high sensitivity, simple operation, and excellent specificity will be an asset for the detection of NQO1 in situ. To assess the substrate selectivity of NIR-ASM for NQO1, both A549 and H460 cells were pretreated with 100 nM of NQO1 inhibitor ES936 for 6 h, before incubating with 10 μM NIR-ASM. […] The effect of ES936 on endogenous NQO1 activity and subsequent reactivity with NIR-ASM was also determined by flow cytometry. […] The presence of NQO1 protein in the transfected MDA-MB-231 cells and its absence in the untransfected control was confirmed by immunoblotting (FIG. 13E). Subsequently, the NQO1-negative and positive MDA-MB-231 cell lines were incubated with NIR-ASM and analyzed by fluorescence microscopy and flow cytometry for activation of the probe.
Fluorescence imaging. Both cancer and normal cells were seeded into 6-well plates and cultured overnight in respective media at 37° C. […] Finally, the medium was replaced with PBS and the live cells were imaged using a multiphoton confocal fluorescence microscope (λex/em=488/644 nm). […]
Flow cytometry analysis. The endogenous NQO1 activity of cancer cells and normal cells was determined by flow cytometry after NIR-ASM exposure. […] About 1×10^4 cells were analyzed by flow cytometry (λex=488 nm).

[2] = system: NQO1 in A549 cells; assay: siRNA knockdown of NQO1 and NIR-ASM activation; type: cell-based, human; conditions: NQO1 expression silenced more than 70%, 60 min incubation, compared with the control
Procedure: as §1
Knockdown of NQO1 by small interfering RNA (siRNA). NQO1 and scrambled or control siRNAs were introduced into cells using the X-tremeGENE siRNA transfection reagent (Roche) according to the manufacturer's instructions. 10 μl of transfection reagent was mixed with 80 pmol of siRNA and added to A549 cells in six-well plates. siRNA transfection efficiency was confirmed with Western blotting.

[3] = target: NQO1 (Homo sapiens, UniProt P15559); assay: Selectivity of NIR-ASM for NQO1 over other enzymes/substrates; type: biochemical; design: purchased Sigma-Aldrich D1515; conditions: 30 min; GSH, ALDH1A1, GGT, GPx, APE1, CBS, CTSL, GST-pi, NADH, NTR
NQO1, sequence (P15559 whole entry): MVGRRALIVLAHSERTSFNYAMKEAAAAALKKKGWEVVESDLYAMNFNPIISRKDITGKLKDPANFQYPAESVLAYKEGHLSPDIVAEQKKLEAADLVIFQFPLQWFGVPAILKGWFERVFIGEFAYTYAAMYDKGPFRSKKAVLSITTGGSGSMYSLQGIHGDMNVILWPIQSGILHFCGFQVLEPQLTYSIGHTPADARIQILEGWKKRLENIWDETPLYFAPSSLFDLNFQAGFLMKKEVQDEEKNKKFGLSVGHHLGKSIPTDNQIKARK
Excerpt: Selectivity of NIR-ASM. The selectivity of NIR-ASM probe was studied by examining its reactivity towards various biomolecules and antioxidant enzymes such as the glutathione, aldehyde dehydrogenase 1, gamma-glutamyl transferase, glutathione peroxidase, apurinic/apyrimidinic endonuclease, cystathionine-β-synthase, cathepsin L, glutathione S-transferase, NADH alone and the combination of nitroreductase and NQO1.
Determination of NIR-ASM specificity towards NQO1. The specificity towards NQO1 was investigated by incubating NIR-ASM (10 μm) with various biologically relevant analytes such as glutathione (GSH, 1 mM), aldehyde dehydrogenase 1 (ALDH1A1, 2.5 μg/mL), gamma-glutamyl transferase (GGT, 10 U), glutathione peroxidase (GPx, 10 U), apurinic/apyrimidinic endonuclease (APE1, 10 U), cystathionine-β-synthase (CBS, 2 μg/mL), cathepsin L (CTSL, 2 μg/mL), glutathione S-transferase (GST-pi, 2 μg/mL), NADH (100 μM) alone and the combination of nitroreductase (NTR, 2 μg/mL) and NQO1 (2 μg/mL) for 30 min. Fluorescence spectra were analyzed to determine NIR-ASM specificity against NQO1.

[4] = system: A549 and MDA-MB-231 tumors; assay: In vivo imaging of NQO1-positive (A549) and -negative (MDA-MB-231) xenografts in the same animal with NIR-ASM; design: species or system nude mice; conditions: intravenous, tumors of 200 mm^3
Procedure: Additionally, to validate the NQO1-specific activation of NIR-ASM to generate fluorescence, the inventors generated NQO1-positive (A549) and -negative (MDA-MB-231) xenografts in the same animal by injecting the corresponding tumor cells on the left and right flanks of the nude mice respectively. When tumors reached a volume of 200 mm^3, NIR-ASM was administered through intravenous injection and the animals were imaged using the In Vivo imager.
In vivo bioimaging. The animal study protocol was approved by the Institutional Animal Use and Care Committee (IACUC), Texas Tech University Health Sciences Center, Protocol number: 07050. All experimental protocols used in this study were approved by IACUC, Texas Tech University Health Sciences Center and all the methods were carried out according to the committee guidelines. Female athymic nude mice (nu/nu, 4-6 weeks) were purchased from Charles River Laboratories (Wilmington, MA, USA). BALB/c57 mice were provided by Dr. Constantinos Mikelis of our University. To establish A549 or MDA-MB-231 xenografts, a total of 5×10^6 cells (in 0.1 ml of serum-free media and Matrigel (1:1)) were subcutaneously injected into the flanks of the mice. […] All animals were monitored for activity, physical condition, body weight, and tumor growth. […] Fluorescence represented in log values of radiance is photons per second per square centimeter per steradian.

[5] = system: human NQO1 transfected MDA-MB-231 cells; assay: NIR-ASM in NQO1 gene transfected MDA-MB-231 cells; type: cell-based; conditions: microscopy and flow cytometry
Procedure: as §1
NQO1 plasmid transfection. Cells were seeded at 60% confluence in six-well plates 16 h before transfection with the desired plasmids. Transfections were carried using a plasmid expressing wild-type NQO1 (pCDNA3 NQO1-Flag, addgene, 61729) and X-tremeGENE DNA transfection reagent (Roche) according to manufacturer instructions. One μg DNA was used in each transfection and cell extracts were prepared 24 h post-transfection to confirm NQO1 protein expression by Western blotting.

In the case of CC1=C(C)C(=O)C(C(C)(C)CC(=O)Nc2ccc(/C=C/C3=CC(=C(C#N)C#N)CC(C)(C)C3)cc2)=C(C)C1=O [NIR-ASM, (E)-N-(4-(2-(3-(dicyanomethylene)-5,5-dimethylcyclohex-1-en-1-yl)vinyl)phenyl)-3-methyl-3-(2,4,5-trimethyl-3,6-dioxocyclohexa-1,4-dien-1-yl)butanamide], the “fluorescence in control (NQO1-negative) cells” value [1] is reported as “No fluorescence”, the “NIR-ASM fluorescence after siRNA silencing of NQO1” value [2] is reported as “almost a total loss” and the “selectivity for NQO1 over the other enzymes/substrates tested” value [3] is reported as “high selectivity”. For the same compound, the “fluorescence signal, NQO1-positive A549 tumor” value [4] was “observed only from the A549 tumor”, the “fluorescence signal, NQO1 negative MDAMB-231 tumors” value [4] was “no signal was discernible” and the “fluorescence after NQO1 gene transfection” value [5] was “intense fluorescence”.
